According to US9012431B2, “Boron-containing small molecules as anti-inflammatory agents” (Anacor Pharmaceuticals, Inc., priority 2008, dated 2015):

Columns and labels:
[1] = biological target: T1, PDE1A3 (Homo sapiens, UniProt P54750); experiment: PDE1 inhibition; assay type: biochemical; details: standard: 8-methoxymethyl-IBMX
T1 construct: made in house; host or cells: baculoviral expression system

[2] = biological target: T2, PDE7A1 (Homo sapiens, UniProt Q13946); experiment: PDE7 inhibition; assay type: biochemical; details: standard: BRL-50481; read-out: IC50 PDE7A1
T2 construct: made in house; host or cells: baculoviral expression system

[3] = test system: IFN-γ secretion from PBMCs; experiment: IFN-γ secretion from PBMCs stimulated with PHA; assay type: cell-based, human; details: PBMC; LPS- and PHA-induced cytokine production by human PBMCs; read-out: IC50 IFNg (Th1 cytokines)
From the text: (§1) Compounds were screened by a biochemical assay against PDE4 enzyme and cell-based cytokine release assays using PBMCs stimulated by LPS or phytohemagglutinin (PHA).

[4] = test system: IL-2 secretion from PBMCs; experiment: IL-2 secretion from PBMCs stimulated with PHA; assay type: cell-based, human; details: PBMC; LPS- and PHA-induced cytokine production by human PBMCs; read-out: IC50 IL-2 (Th1 cytokines)
From the text: as §1

[5] = test system: IL-5 production by human PBMCs; experiment: IL-5 production by LPS- or PHA-stimulated PBMCs; assay type: cell-based; details: PBMC; LPS- and PHA-induced cytokine production by human PBMCs; read-out: IC50 IL-5 (Th2 cytokines)
[6] = test system: TNF-α secretion from peripheral blood mononuclear cells (PBMCs); experiment: TNF-α secretion from PBMCs stimulated by LPS; assay type: cell-based, human; details: PBMC; LPS- and PHA-induced cytokine production by human PBMCs; read-out: IC50 TNFα (pro-inflammatory cytokines)
From the text: as §1

[7] = test system: IL-1β production by human PBMCs; experiment: IL-1β production by LPS- or PHA-stimulated PBMCs; assay type: cell-based; details: PBMC; LPS- and PHA-induced cytokine production by human PBMCs; read-out: IC50 IL-1β (pro-inflammatory cytokines)
[8] = test system: IL-10 production by human PBMCs; experiment: IL-10 production by LPS- or PHA-stimulated PBMCs; assay type: cell-based; details: PBMC; LPS- and PHA-induced cytokine production by human PBMCs; read-out: IC50 IL-10 (Th2 cytokines)
[9] = test system: T3, PDE3 Cat; experiment: PDE3 inhibition; assay type: biochemical; details: standard: Cilostazol
T3 construct: Recombinant human PDE enzymes were expressed in a baculoviral system.; PDE isoforms tested include

[10] = test system: T4, PDE4 partially purified from human U-937 myeloid leukemia cells; experiment: PDE4 Assay (enzyme from U-937 cells, [3H]cAMP); assay type: biochemical; details: PDE4 from U-937 cells, Tris buffer pH 7.5, 20 minutes at 25° C.
T4 construct: PDE4 partially purified from human U-937 myeloid leukemia cells was used

[11] = test system: TNF-α; experiment: Cytokine assay, TNF-α release from PBMC; assay type: cell-based; details: Homo sapiens, PBMC, 24 h, 1 μg/mL LPS, supernatant at 24 hours
Method in brief: (§2)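 Using previously frozen human PBMC resuspended in medium of RPMI 1640 supplemented with 10% FBS, test article at 10, 1, 0.1 and 0.01 μM was evaluated in triplicate; DMSO stock was 10 mM.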

[12] = test system: IL-2; experiment: Cytokine assay, IL-2 release from PBMC; assay type: cell-based; details: human PBMC, 20 ug/mL PHA, supernatant at 24 hours
Method in brief: as §2

[13] = test system: IFN-γ; experiment: Cytokine assay, IFN-γ release from PBMC; assay type: cell-based; details: human PBMC, 20 ug/mL PHA, supernatant at 24 hours
Method in brief: as §2

[14] = test system: IL-5; experiment: Cytokine assay, IL-5 release from PBMC; assay type: cell-based; details: human PBMC, 20 ug/mL PHA, supernatant at 48 hours
Method in brief: as §2

[15] = test system: BALB/c male mice; experiment: Oxazolone Induced Mouse Ear Edema Model; assay type: in vivo; details: for inhibition in vivo at 1 mg: 1 mg/ear × 2 topical
Method: 2. In Vivo Anti-Inflammation Activity in Oxazolone Induced Mouse Ear Edema Model
Groups of 5 BALB/c male mice weighing 23±2 g were used. The preshaved abdomens of test animals were sensitized by application of 100 μl, of 1.5% oxazolone solution dissolved in acetone. Seven days after the initial sensitization, test substances, as well as vehicle (acetone:ethanol/1:1, 20 μL/ear) were each administered topically to the anterior and posterior surfaces of the right ear 30 minutes before, and 15 minutes after, challenge by a second application of oxazolone (1% in acetone, […]) via topical route. As a positive control, indomethacin (0.3 mg/ear×2) was administered topically using the same treatment regime as for the test compounds. Twenty-four hours after the second application of oxazolone, the ear thickness of each mouse was measured with a Dyer model micrometer gauge. A 30 percent or more inhibition in ear swelling relative to the vehicle control was considered significant and indicated possible anti-inflammatory activity.

[16] = test system: IL-10; experiment: Cytokine assay, IL-10 release from PBMC; assay type: cell-based; details: human PBMC, 20 ug/mL PHA, supernatant at 48 hours
Method in brief: as §2

[17] = test system: CD-1 (Crl.) derived male mice; experiment: Phorbol Ester Induced Mouse Ear Edema Model; assay type: in vivo; details: topical, 6 h; for inhibition in vivo at 0.2 mg: 0.2 mg/ear × 2 topical; for inhibition in vivo at 1 mg: 1 mg/ear × 2 topical; for inhibition in vivo at 0.02 mg: 0.02 mg/ear × 2 topical; for inhibition in vivo at 0.067 mg: 0.067 mg/ear × 2 topical
Method in brief: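 Test compounds in acetone:ethanol 1:1 were applied topically to both ears 30 min before and 15 min after PMA challenge; dexamethasone positive control followed the same schedule. Ear thickness was measured by micrometer 6 h after PMA, and percent inhibition was calculated from ear-thickness increase versus vehicle controls.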

[18] = test system: PMA induced ear edema; experiment: PMA induced ear edema (acute skin irritation model); assay type: in vivo; details: acetone/ethanol vehicle; 5% C27, 15% dexamethasone; p<0.01
[19] = Acetone:Ethanol/1:1, ear thickness 24 hours after second oxazolone application
[20] = Acetone:Ethanol/1:1, ear swelling 6 hours after PMA
[21] = 95% Ethanol, ear swelling 6 hours after PMA

T1 sequence (P54750 whole entry): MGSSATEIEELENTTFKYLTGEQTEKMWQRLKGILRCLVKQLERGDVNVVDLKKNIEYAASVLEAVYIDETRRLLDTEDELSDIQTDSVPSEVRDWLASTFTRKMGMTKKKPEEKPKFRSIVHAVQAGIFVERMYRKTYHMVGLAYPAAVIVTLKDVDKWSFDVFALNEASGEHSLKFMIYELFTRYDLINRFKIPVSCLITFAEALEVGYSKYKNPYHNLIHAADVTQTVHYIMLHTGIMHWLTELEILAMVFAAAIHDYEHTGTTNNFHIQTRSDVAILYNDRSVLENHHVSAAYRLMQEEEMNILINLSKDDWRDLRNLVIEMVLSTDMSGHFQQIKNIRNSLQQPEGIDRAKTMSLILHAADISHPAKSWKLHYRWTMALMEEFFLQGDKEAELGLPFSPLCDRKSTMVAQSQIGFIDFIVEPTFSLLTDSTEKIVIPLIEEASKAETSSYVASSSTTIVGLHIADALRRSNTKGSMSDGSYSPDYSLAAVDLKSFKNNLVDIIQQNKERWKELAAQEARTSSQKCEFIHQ
T2 sequence (Q13946 whole entry): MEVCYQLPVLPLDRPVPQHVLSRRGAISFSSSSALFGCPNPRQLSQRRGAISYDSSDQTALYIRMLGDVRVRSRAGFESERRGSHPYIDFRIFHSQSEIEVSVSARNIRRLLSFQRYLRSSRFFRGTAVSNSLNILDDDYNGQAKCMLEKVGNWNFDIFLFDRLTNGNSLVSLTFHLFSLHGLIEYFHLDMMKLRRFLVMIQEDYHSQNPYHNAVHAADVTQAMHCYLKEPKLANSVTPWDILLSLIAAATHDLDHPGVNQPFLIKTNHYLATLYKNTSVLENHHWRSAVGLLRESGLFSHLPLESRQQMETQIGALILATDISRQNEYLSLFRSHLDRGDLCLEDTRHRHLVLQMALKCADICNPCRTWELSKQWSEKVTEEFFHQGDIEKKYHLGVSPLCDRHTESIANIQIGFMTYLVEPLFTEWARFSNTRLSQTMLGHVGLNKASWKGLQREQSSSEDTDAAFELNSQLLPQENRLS

SMILES | melting point [°C] | IC50 [10] [nM] | IC50 [11] [nM] | IC50 [12] [nM] | IC50 [13] [nM] | IC50 [14] [nM] | IC50 [16] [nM] | also measured
N#Cc1ccc(Oc2ccc(B(O)O)cc2)cc1 | 194 to 198 | – | – | – | – | – | – | –
COCc1nc2c([nH]1)c(=O)n(C)c(=O)n2CC(C)C [8-methoxymethyl-IBMX, reference compound] | – | – | – | – | – | – | – | IC50 [1]: 1000 to 10000 nM
Cc1ccc([N+](=O)[O-])cc1S(=O)(=O)N(C)C [BRL-50481, reference compound] | – | – | – | – | – | – | – | IC50 [2]: 1000 to 10000 nM
COc1ccc([C@]2(C#N)CC[C@@H](C(=O)O)CC2)cc1OC1CCCC1 [Cilomilast] | – | – | – | – | – | – | – | IC50 [3]: < 1000 nM; IC50 [4]: < 1000 nM; IC50 [5]: < 1000 nM; IC50 [6]: < 1000 nM; IC50 [7]: > 30000 nM; IC50 [8]: 1000 to 10000 nM
O=C1CCc2cc(OCCCCc3nnnn3C3CCCCC3)ccc2N1 [Cilostazol, cilostazol, reference compound] | – | – | – | – | – | – | – | IC50 [9]: 1000 to 10000 nM
CCOC(=O)c1ccc(Oc2ccc3c(c2)COB3O)cc1OC [D35, 4-(1-Hydroxy-1,3-dihydro-benzo[c][1,2]oxaborol-5-yloxy)-2-methoxy-benzoic acid ethyl ester] | 64.9 to 65.2 | < 1000 | < 1000 | < 1000 | < 1000 | – | – | –
COc1cc(Oc2ccc3c(c2)COB3O)ccc1C(=O)O [D36, 4-(1-Hydroxy-1,3-dihydro-benzo[c][1,2]oxaborol-5-yloxy)-2-methoxy-benzoic acid] | 109.6 to 110.1 | – | > 10000 | > 10000 | > 10000 | – | – | –
COC(=O)c1ccc(Oc2ccc3c(c2)COB3O)nc1C(=O)OC [D44, 6-(1-Hydroxy-1,3-dihydro-benzo[c][1,2]oxaborol-5-yloxy)-pyridine-2,3-dicarboxylic acid dimethyl ester] | 67.5 to 69.2 | < 1000 | < 1000 | < 1000 | < 1000 | – | – | –
CCOC(=O)c1nc(Oc2ccc3c(c2)COB3O)ccc1C#N [D45, 3-Cyano-6-(1-hydroxy-1,3-dihydro-benzo[c][1,2]oxaborol-5-yloxy)-pyridine-2-carboxylic acid ethyl ester] | 204 to 206 | < 1000 | < 1000 | < 1000 | < 1000 | – | – | –
CCOC(=O)c1ccc(Oc2ccc3c(c2)COB3O)nc1 [D60, Ethyl 6-(1-hydroxy-1,3-dihydrobenzo[c][1,2]oxaborol-5-yloxy)nicotinate] | 110 to 113 | < 1000 | < 1000 | < 1000 | < 1000 | < 1000 | < 1000 | inhibition in vivo at 0.1 mg ([15]; 0.1 mg/ear × 2 topical, Acetone:Ethanol/1:1, ear thickness 24 hours after second oxazolone application): < 20%; inhibition in vivo at 0.2 mg ([15]; 0.2 mg/ear × 2 topical, Acetone:Ethanol/1:1, ear thickness 24 hours after second oxazolone application): < 20%; inhibition in vivo at 1 mg [15, 19]: < 20%; inhibition in vivo at 0.1 mg ([17]; 0.1 mg/ear × 2 topical, Acetone:Ethanol/1:1, ear swelling 6 hours after PMA): < 30%; inhibition in vivo at 0.2 mg [17, 20]: < 30%; inhibition in vivo at 1 mg [17, 20]: 30 to 60%
N#Cc1ccc(Oc2ccc3c(c2)COB3O)nc1N1CCOCC1 [D102, 6-(1-Hydroxy-1,3-dihydro-benzo[c][1,2]oxaborol-5-yloxy)-2-morpholin-4-yl-nicotinonitrile] | – | < 1000 | < 1000 | < 1000 | < 1000 | < 1000 | 1000 to 4000 | inhibition in vivo at 1 mg [15, 19]: < 20%; inhibition in vivo at 0.02 mg [17, 21]: < 30%; inhibition in vivo at 0.067 mg [17, 21]: < 30%; inhibition in vivo at 1 mg [17, 21]: 30 to 60%; inhibition in vivo at 3 mg ([17]; 3 mg/ear × 2 topical, 95% Ethanol, ear swelling 6 hours after PMA): 30 to 60%
CCOc1nc(Oc2ccc3c(c2)COB3O)ccc1C#N [D107, 2-Ethoxy-6-(1-hydroxy-1,3-dihydro-benzo[c][1,2]oxaborol-5-yloxy)-nicotinonitrile] | – | < 1000 | < 1000 | < 1000 | < 1000 | < 1000 | < 1000 | inhibition in vivo at 2.4 mg ([15]; 2.4 mg/ear × 2 topical, 95% Ethanol, ear thickness 24 hours after second oxazolone application): < 20%; inhibition in vivo at 0.02 mg [17, 21]: < 30%; inhibition in vivo at 0.06 mg ([17]; 0.06 mg/ear × 2 topical, 95% Ethanol, ear swelling 6 hours after PMA): < 30%; inhibition in vivo at 0.067 mg [17, 21]: 30 to 60%; inhibition in vivo at 0.2 mg [17, 21]: 60 to 90%; inhibition in vivo at 0.24 mg ([17]; 0.24 mg/ear × 2 topical, 95% Ethanol, ear swelling 6 hours after PMA): 30 to 60%; inhibition in vivo at 0.8 mg ([17]; 0.8 mg/ear × 2 topical, 95% Ethanol, ear swelling 6 hours after PMA): 60 to 90%; inhibition in vivo at 2.4 mg ([17]; 2.4 mg/ear × 2 topical, 95% Ethanol, ear swelling 6 hours after PMA): 60 to 90%
CCOc1cc(Oc2ccc3c(c2)COB3O)ccc1C#N [D124, 2-Ethoxy-4-(1-hydroxy-1,3-dihydrobenzo[c][1,2]oxaborol-5-yloxy)benzonitrile] | – | < 1000 | < 1000 | < 1000 | < 1000 | < 1000 | < 1000 | inhibition in vivo at 1 mg [15, 19]: < 20%; inhibition in vivo at 1 mg [17, 21]: < 30%
COc1ccc(C2CNC(=O)C2)cc1OC1CCCC1 (stereo not shown) [Rolipram, rolipram, reference compound] | – | – | < 1000 | < 1000 | < 1000 | < 1000 | < 1000 | IC50 [3]: < 1000 nM; IC50 [4]: < 1000 nM; IC50 [5]: < 1000 nM; IC50 [6]: < 1000 nM; IC50 [7]: > 30000 nM; IC50 [8]: < 1000 nM
C[C@@H]1C[C@H]2[C@@H]3CCC4=CC(=O)C=C[C@]4(C)[C@@]3(F)[C@@H](O)C[C@]2(C)[C@@]1(O)C(=O)CO [dexamethasone, reference compound] | – | – | – | – | – | – | – | inhibition of PMA induced ear edema [18]: 73%; inhibition in vivo at 1 mg ([17]; vehicle not given, ear swelling 6 hours after PMA): 60 to 90%
